Assay results: patent publication US20120196801A1, “Wound-healing, anti-ambustial, regenerating, and anti-viral pharmaceutical formula for local administration” (priority 2011, published 2012)

Test system: endogenous interferon
Set-up: species or system non-linear white mice
Conditions: mouse, in vivo, ip

For Poly I:C, the “Minimum Dose Inducing Interferon” value was 5 µg/mL and the “Titer of ME Interferons” value was 1638 ME.
